Test results from ChEMBL document CHEMBL1201862, “PubChem BioAssay data set” (2004).
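Step 1: Grow cells in 96-well plates. Step 2: Expose to compound for 48 hours at 5 concentrations. Step 3: Interpolate endpoints linearly; if unreached, use highest concentration. At the GI50, growth is halved.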 Activity calls are given as the source filed them. No stated cut-off is given here; in the data, active = GI50 up to about 1.1 µM and inactive = higher.

Key:
Experiment in all cases: NCI-60 cell line screen, 48 h
DLD-1 = system: DLD-1
DMS-114 = system: DMS-114
DMS-273 = system: DMS-273
KM-20L2 = system: KM-20L2
LXFL 529 = system: LXFL 529
M19-MEL = system: M19-MEL
XF498 = system: XF498
RXF 631 = system: RXF 631
MDA-MB-435 = system: MDA-MB-435

Measured: GI50

C/C=C/C(C#N)O[Si](C)(C)C (configuration not stated)
inactive: DLD-1 > 100 µM | DMS-114 > 100 µM | DMS-273 > 100 µM | KM-20L2 > 100 µM | LXFL 529 > 100 µM | M19-MEL > 100 µM | XF498 > 100 µM

COC(=O)C(=O)C(C(=O)OC)C(=O)C(=O)Nc1cc(Cl)c(Cl)cc1Cl (configuration not stated)
inactive: DLD-1 76.4 µM | DMS-114 14.6 µM | DMS-273 44.7 µM | KM-20L2 > 100 µM | LXFL 529 > 100 µM | M19-MEL > 100 µM | RXF 631 > 100 µM | XF498 > 100 µM

CC1(C)C2CCC3(OCCO3)C1C1OC12 (configuration not stated)
inactive: DMS-273 > 100 µM | KM-20L2 > 100 µM | RXF 631 > 100 µM | XF498 > 100 µM

C=C(Nc1ccc(OC)cc1OC)C(=O)Cc1cccc[n+]1[O-]
inactive: DLD-1 > 100 µM | DMS-114 > 100 µM | DMS-273 > 100 µM | KM-20L2 > 100 µM | LXFL 529 > 100 µM | M19-MEL > 100 µM | XF498 > 100 µM

CCOC(=O)C1C(=O)CN2CCc3c([nH]c4ccccc34)C12C(=O)OCC (configuration not stated)
inactive: DLD-1 > 100 µM | DMS-114 > 100 µM | DMS-273 > 100 µM | KM-20L2 > 100 µM | LXFL 529 > 100 µM | M19-MEL > 100 µM | RXF 631 > 100 µM | XF498 > 100 µM

Cc1ccc(NC(=O)/C(=N\Nc2ccc([N+](=O)[O-])cc2[N+](=O)[O-])C2C(=O)NC(=O)NC2=O)cc1
inactive: DLD-1 21.1 µM | DMS-114 49.2 µM | KM-20L2 15.4 µM | LXFL 529 13.3 µM | M19-MEL > 100 µM | RXF 631 > 100 µM

Cc1ccc(-c2nnc3s/c(=C\c4ccc(N(C)C)cc4)c(=O)n23)cc1
inactive: DLD-1 > 100 µM | DMS-114 > 100 µM | DMS-273 > 100 µM | KM-20L2 > 100 µM | LXFL 529 > 100 µM | M19-MEL > 100 µM | RXF 631 > 100 µM | XF498 > 100 µM

O=S(=O)(N/N=C/c1c(Cl)cccc1Cl)c1ccccc1
inactive: DLD-1 > 100 µM | DMS-114 > 100 µM | DMS-273 > 100 µM | KM-20L2 > 100 µM | LXFL 529 > 100 µM | M19-MEL > 100 µM | RXF 631 > 100 µM | XF498 68.4 µM

N#CCC(=O)N/N=C1\C(=O)N(c2ccc(Cl)cc2)C(=O)C(=O)C1c1nc2ccccc2o1 (configuration not stated)
inactive: DLD-1 > 100 µM | DMS-114 > 100 µM | DMS-273 > 100 µM | KM-20L2 > 100 µM | LXFL 529 > 100 µM | M19-MEL > 100 µM | RXF 631 > 100 µM

CC#C[C@@]1(O)CCCC[C@@H]1O
inactive: DMS-114 > 100 µM | DMS-273 > 100 µM | KM-20L2 > 100 µM | M19-MEL > 100 µM | RXF 631 > 100 µM | XF498 > 100 µM

CC1=Nc2ccccc2C12C(c1ccccc1)C(c1ccccc1)C(=O)N1c3ccccc3CC12 (configuration not stated)
inactive: DLD-1 > 100 µM | DMS-114 > 100 µM | DMS-273 > 100 µM | KM-20L2 > 100 µM | LXFL 529 > 100 µM | RXF 631 > 100 µM | XF498 11.9 µM

CC1(C)OCC[C@@H]1[Si](C)(C)C
inactive: DMS-114 49.2 µM | DMS-273 78.3 µM | KM-20L2 > 100 µM | LXFL 529 > 100 µM | M19-MEL > 100 µM | RXF 631 > 100 µM | XF498 32.8 µM

CC(=O)c1cccc(NC(=O)C(=O)C(C(=O)c2ccccc2F)C2OC(=O)c3ccccc32)c1 (configuration not stated)
inactive: DLD-1 45.8 µM | DMS-114 31 µM | DMS-273 34 µM | KM-20L2 40.2 µM | LXFL 529 44 µM | M19-MEL 23.1 µM | RXF 631 21.1 µM | XF498 35.6 µM

CN(/N=C/c1cccc2cccnc12)c1ccc([N+](=O)[O-])cc1[N+](=O)[O-]
inactive: DLD-1 44.7 µM | DMS-114 20.2 µM | DMS-273 34.4 µM | KM-20L2 > 100 µM | LXFL 529 > 100 µM | M19-MEL > 78 µM | MDA-MB-435 > 100 µM | RXF 631 36.1 µM | XF498 6.01 µM

C/C(=C/c1c(C)[nH]c(=O)[nH]c1=O)C(=O)O
inactive: DLD-1 > 1370 µM | DMS-114 > 1370 µM | DMS-273 > 1370 µM | KM-20L2 > 1370 µM | M19-MEL > 1370 µM | XF498 > 1370 µM

C[C@@H]1O[C@]2(O)[C@@H]3CCCN3S(=O)(=O)CCN2C1=O
inactive: DLD-1 > 100 µM | KM-20L2 > 100 µM | LXFL 529 > 100 µM | M19-MEL > 100 µM | RXF 631 > 100 µM | XF498 8.41 µM

COc1ccc(NC(=O)C(=O)NO)c(OC)c1
inactive: DLD-1 21.5 µM | DMS-114 15.5 µM | DMS-273 16.6 µM | KM-20L2 19.1 µM | LXFL 529 16.7 µM | M19-MEL 21.9 µM | RXF 631 18.6 µM

O=C1/C(=C/c2ccccc2)CCC/C1=C\c1ccccc1 [2,6-DIBENZYLIDENECYCLOHEXANONE]
inactive: DLD-1 3.04 µM | DMS-114 9.68 µM | DMS-273 8.04 µM | KM-20L2 8.79 µM | LXFL 529 4.5 µM | M19-MEL 1.97 µM | MDA-MB-435 5.62 µM | RXF 631 17.7 µM
